This is an account of results in patent US20250263423A1, “INHIBITORS OF RAS ONCOPROTEINS” (BridGene Biosciences, Inc., priority 2021, published 2025).

For this test, the target named is Kras G12D (Homo sapiens (Human), UniProt P01116, G12D). Briefly: HTRF-based nucleotide exchange assay detecting GTP binding to K-Ras. In kind it is biochemical. As to conditions: SOS1 (aa 564-1049), fluorescently labelled GTP, compound incubated 1 h at RT. The protocol: Kras G12D was mixed with a-GST Tb antibody (1.5× solution) and 10 uL was delivered to reaction wells. A mixture of Kras G12D/aGST-Tb Ab/compound mixture was incubated for 1 h at RT. A 3× solution of SOS1 (aa 564-1049) and fluorescently labelled GTP* was prepared in reaction buffer and 5 μL of SOS1/GTP* solution was added to reaction well to initiate the exchange reaction. An IC50 was determined using a sigmoidal dose response (variable slope) equation. Note: Assay IC50 data are designated within the following ranges: A: ≤10 nM, B: >10 nM to ≤1000 nM, C: >1000 nM
Sequence of Kras G12D (P01116-2 other isoform, or with tags, fused parts or gaps G12D): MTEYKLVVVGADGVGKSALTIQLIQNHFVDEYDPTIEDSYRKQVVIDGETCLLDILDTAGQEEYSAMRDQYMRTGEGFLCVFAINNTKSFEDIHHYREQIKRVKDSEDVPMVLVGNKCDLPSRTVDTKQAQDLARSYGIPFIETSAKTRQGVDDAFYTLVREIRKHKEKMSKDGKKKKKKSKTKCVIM

Where only a bound is given, the exact number is not on record here.

In general, IC50 refers to the concentration needed to halve the response being measured. A lower IC50 goes with inhibition by little substance. Consider `C#Cc1cccc2cc(O)cc(-c3ncc4c(N5C[C@@H]6C[C@H]5CN6)nc(OCC56CCCN5CCC6)nc4c3F)c12` (stereo in doubt) [Example 6, 4-(4-((1S,4S)-2,5-diazabicyclo[2.2.1]heptan-2-yl)-8-fluoro-2-((tetrahydro-1H-pyrrolizin-7a(5H)-yl)methoxy)pyrido[4,3-d]pyrimidin-7-yl)-5-ethynylnaphthalen-2-ol], for which the IC50 is ≤ 10 nM.

In the case of `C[C@@H]1CN(c2nc(OCC34CCCN3CCC4)nc3c(F)c(-c4cccc5cccc(Cl)c45)ncc23)C[C@H](C)N1` [Example 1, 7-(8-chloronaphthalen-1-yl)-4-((3R,5S)-3,5-dimethylpiperazin-1-yl)-8-fluoro-2-((tetrahydro-1H-pyrrolizin-7a(5H)-yl)methoxy)pyrido[4,3-d]pyrimidine], the IC50 was > 1000 nM.

In the case of `C[C@H]1CN(c2nc(OCC34CCCN3CCC4)nc3c(F)c(-c4cccc5cccc(Cl)c45)ncc23)C[C@H](C)N1` [Example 2, 7-(8-chloronaphthalen-1-yl)-4-((3S,5S)-3,5-dimethylpiperazin-1-yl)-8-fluoro-2-((tetrahydro-1H-pyrrolizin-7a(5H)-yl)methoxy)pyrido[4,3-d]pyrimidine], the IC50 fell in the range of 10 to 1000 nM.

With `Fc1c(-c2cccc3cccc(Cl)c23)ncc2c(N3C[C@H]4CC[C@@H](C3)N4)nc(OCC34CCCN3CCC4)nc12` [Example 3, 4-((1R,5S)-3,8-diazabicyclo[3.2.1]octan-3-yl)-7-(8-chloronaphthalen-1-yl)-8-fluoro-2-((tetrahydro-1H-pyrrolizin-7a(5H)-yl)methoxy)pyrido[4,3-d]pyrimidine], the IC50 was ≤ 10 nM.

Take `C#Cc1cccc2cc(O)cc(-c3ncc4c(N5CC6COCC(C5)N6)nc(OCC56CCCN5CCC6)nc4c3F)c12` [Example 4, 4-(4-(3-oxa-7,9-diazabicyclo[3.3.1]nonan-7-yl)-8-fluoro-2-((tetrahydro-1H-pyrrolizin-7a(5H)-yl)methoxy)pyrido[4,3-d]pyrimidin-7-yl)-5-ethynylnaphthalen-2-ol]: the IC50 is ≤ 10 nM.

For `Fc1c(-c2cccc3cccc(Cl)c23)ncc2c(N3CC4CNCC4C3)nc(OCC34CCCN3CCC4)nc12` [Example 5, 4-[(3aR, 6aS)-2,3,3a,4,6,6a-hexahydro-1H-pyrrolo[3,4-c]pyrrol-5-yl]-7-(8-chloro-1-naphthyl)-8-fluoro-2-(1,2,3,5,6,7-hexahydropyrrolizin-8-ylmethoxy)pyrido[4,3-d]pyrimidine], the 50% inhibitory concentration (IC50) is > 1000 nM.

On to `C#Cc1cccc2cc(O)cc(-c3ncc4c(N5CC6CCCC(C5)N6)nc(OCC56CCCN5CCC6)nc4c3F)c12` [Example 7, 4-(4-(3,9-diazabicyclo[3.3.1]nonan-3-yl)-8-fluoro-2-((tetrahydro-1H-pyrrolizin-7a(5H)-yl)methoxy)pyrido[4,3-d]pyrimidin-7-yl)-5-ethynylnaphthalen-2-ol], for which the IC50 is ≤ 10 nM.

Take `C#Cc1cccc2cc(O)cc(-c3ncc4c(N5CC6CC(C5)N6)nc(OCC56CCCN5CCC6)nc4c3F)c12` [Example 8, 4-[4-(3,6-diazabicyclo[3.1.1]heptan-3-yl)-8-fluoro-2-(1,2,3,5,6,7-hexahydropyrrolizin-8-ylmethoxy)pyrido[4,3-d]pyrimidin-7-yl]-5-ethynyl-naphthalen-2-ol]: the IC50 is ≤ 10 nM.
